Results taken from EP3412361A1, “METHOD FOR PREPARING PARTICULATE FORM CAESIUM-REMOVAL INORGANIC ION ADSORBENT AND PRODUCT AND APPLICATION THEREOF” (Tsinghua University, priority 2015, dated 2017).

Experiment: Monolayer dispersion threshold of metal salt on silica gel by XRD diffraction peak intensity extrapolation
Assay type: physicochemical
Conditions: salt impregnated on silica gel at 90 °C, dried 120 °C 10 h
Method: Through equal volume impregnation method, silica gel pellets is impregnated with a series of different concentrations of salt solution containing M^n+ ion. The impregnated solid materials are dried in an oven to obtain a silica gel intermediate M/SiO2 with a different amounts of M salt on the surface. Based on monolayer dispersion principle of a metal salt on the surface of carrier, the monolayer dispersion threshold of various kinds of M^n+ ion salts on silica gel surface is determined by X - ray diffraction method. The value is the monolayer loading of various salts on the surface of silica gel carrier.
Further, in the step (1), it is necessary to determine monolayer dispersion threshold of M^n+ ion salt on the surface of silica gel, which may be measured by loading a series of different amounts of the M^n+ ion salt onto the surface of silica gel by the solution impregnation method followed by drying to obtain the sample to be tested.
The silica gel mass is 5-10 g, and the loading amount of M^n+ ion salt on the silica gel is 0.02g, 0.05g, 0.1g, 0.5g, 1.0g, 2.0g, 3.0g, 4.0g, 5.0g, 6.0 g per g silica gel; the ratio by volume of the M^n+ ion solution to the silica gel is 0.5-2.
The obtained samples series is subjected to X-ray diffraction (XRD) and the strongest diffraction peak intensity (y-axis) is linearly correlated with the corresponding M^n+ ion salt loading (x-axis) in which the intercept on the x-axis is the monolayer dispersion threshold.
Further, in the step (1), the impregnation process is carried out in a water bath at a temperature of 90 °C, and the mixture is continuously stirred until the liquid is completely evaporated and the solute M^n+ ion salt is fully supported on the silica gel surface.
Further, in the step (1), the silica gel intermediate M/ SiO2 is dried in an oven for 10 h at a temperature of 120 °C.
Then, 1 g of silica gel pellets were added to each beaker and the beaker was placed in a water bath at a temperature of 90 °C. In the process of evaporation of water, the mixture was being stirred with a glass rod until the water evaporated and the pellets were basically dry. The beaker was dried in an oven at 120 °C for 10 hours.
Then, 1 g of silica gel pellets were added to each beaker and the beaker was placed in a water bath at a temperature of 90 °C.

SMILES	monolayer dispersion threshold on silica gel [g/g]
O.O.O.O.O.O.O=[N+]([O-])[O-].O=[N+]([O-])[O-].[Co+2] [Co(NO3)2, cobalt nitrate]	0.63
[Cl][Fe]([Cl])[Cl] [FeCl3, ferric chloride]	0.43
O.O=[N+]([O-])[O-].O=[N+]([O-])[O-].[O]=[Zr+2] [ZrO(NO3)2]	1.02
O=S(=O)([O-])[O-].[Cu+2] [CuSO4, copper sulfate]	0.79
CC(=O)[O-].CC(=O)[O-].O.O.[Zn+2] [Zn(AC)2, zinc acetate]	0.18
